The compounds below were run against human SGLT1 (Homo sapiens (Human), UniProt P13866) (assay: SGLT1 inhibitory activity: 14C-AMG uptake into CHO-K1 cell line stably expressing human SGLT1). Conditions: 14C-AMG uptake, CHO-K1 cells expressing human SGLT1.
human SGLT1, sequence (P13866 whole entry): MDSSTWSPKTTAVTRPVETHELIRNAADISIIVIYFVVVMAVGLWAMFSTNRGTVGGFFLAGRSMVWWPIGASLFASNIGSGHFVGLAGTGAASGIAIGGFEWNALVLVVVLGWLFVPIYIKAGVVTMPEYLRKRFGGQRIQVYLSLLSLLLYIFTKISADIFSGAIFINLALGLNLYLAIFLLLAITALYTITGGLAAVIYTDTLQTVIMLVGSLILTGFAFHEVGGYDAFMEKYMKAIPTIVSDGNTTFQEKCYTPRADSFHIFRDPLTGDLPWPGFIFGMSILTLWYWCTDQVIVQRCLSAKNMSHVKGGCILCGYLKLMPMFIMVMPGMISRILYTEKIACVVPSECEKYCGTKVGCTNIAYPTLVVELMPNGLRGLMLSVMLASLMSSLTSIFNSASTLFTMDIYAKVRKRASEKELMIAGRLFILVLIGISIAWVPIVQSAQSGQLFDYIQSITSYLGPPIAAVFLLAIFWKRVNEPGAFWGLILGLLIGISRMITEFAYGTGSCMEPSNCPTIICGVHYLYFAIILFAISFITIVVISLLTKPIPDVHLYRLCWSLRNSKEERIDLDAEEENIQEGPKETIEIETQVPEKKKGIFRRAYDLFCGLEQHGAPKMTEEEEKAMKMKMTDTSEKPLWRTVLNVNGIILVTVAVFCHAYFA
Assay type: cell-based
Protocol: SGLT1 inhibitory activity of a test compound (IC50 value) was calculated based on an amount of intake into a cell of labeled α-methyl-D-glucopyranoside (^14C-AMG) which is transported by SGLT1.
1) Construction of Human SGLT1 Expression Plasmid
A DNA fragment containing human SGLT1, wherein NheI recognition and cleavage sequence was added upstream of a Kozac consensus sequence of the vector; and a stop codon (TAG) and a SalI recognition and cleavage sequence was added just downstream of a coding region of the human SGLT1, was amplified by PCR using pCMV6-hSGLT1 (OriGene) as a template. The purified DNA fragment was cleaved by restriction enzymes NheI and SalI, and the obtained fragment was ligated into pcDNA3.1 (+) which was cleaved by NheI and XhoI to construct human SGLT1 expression plasmid.
2) Establishment of Stable Cell Lines Expressing Human SGLT1
A human SGLT1 expression plasmid pcDNA-hSGLT1 was transfected into CHO-K1 cells by Lipofectamine-2000 (Invitrogen). The cells were cultured in the presence of G418 (Nakalai tesque) and drug-resistant cells were selected. A cell line having the highest S/B ratio of an amount of ^14C-AMG uptake per cell treated by solvent to an amount of ^14C-AMG uptake per cell treated by phlorizin (SGLT inhibitor) was selected from the drug-resistant cells as a stable cell lines expressing human SGLT1.
3) Evaluation of SGLT1 Inhibitory Activity
The stable cell line expressing human SGLT1 was seeded at 5×10^4 cells/well on BioCoat™ Poly-D-Lysine 96 well plate with Lid (Becton Dickinson and Company) and cultured at 37° C. under 5% CO2 overnight. The medium was replaced with 100 μL/well of a Na (−) buffer (140 mM choline chloride, 2 mM KCl, 1 mM MgCl2, 1 mM CaCl2, 10 mM HEPES, 5 mM Tris, pH7.4) followed by incubation for 20 minutes at 37° C. under 5% CO2. After removing the Na (−) buffer, a test compound solution which was prepared from Na (+) buffer (140 mM NaCl, 2 mM KCl, 1 mM MgCl2, 1 mM CaCl2, 10 mM HEPES, 5 mM Tris, pH7.4) containing BSA was added thereto at 40 μL/well. In addition, Na (+) buffer containing 8 kBq of ^14C-AMG and 2 mM AMG was added thereto at 40 μL/well, and was mixed well. Na (−) buffer containing BSA was added to a blank well at 40 μL/well and additionally adding a Na (+) buffer containing 8 kBq of ^14C-AMG and 2 mM AMG, and was mixed well. Cells were incubated for 1 hour at 37° C. under 5% CO2. After the reaction, the cells were washed twice with 100 μL/well of iced wash buffer (100 mM AMG, 140 mM choline chloride, 2 mM KCl, 1 mM MgCl2, 1 mM CaCl2, 10 mM HEPES, 5 mM Tris, pH7.4), then lysed in 50 μL/well of a 0.2N aqueous solution of NaOH. The cell lysate was transferred to OptiPlate96 (Perkin-Elmer) and 100 μL/well of MicroScint-40 (Perkin-Elmer) was dispensed. The radioactivity was counted by TOPCOUNT NXT (Perkin-Elmer).
A data was obtained by deducting the average value (CPM) of blank wells from the average value (CPM) of each treated well. The inhibition ratio (%) was calculated by the following formula: inhibition rate (%)=[(A−B)/A]×100, where A is a data of the solvent control, and B is a data of a test compound.
With `CCCc1cccc(-c2cc(NC(=O)C3COC(=O)C3)nn2-c2ccccc2)c1` (racemic) [Example 7, 5-oxotetrahydrofuran-3-carboxylic acid[1-phenyl-5-(3-propylphenyl)-1H-pyrazol-3-yl]amide] the IC50 was 33 nM.
Compound `O=C1CC(C(=O)Nc2cc(-c3ccccc3)n(-c3ccccc3)n2)CN1` (racemic) [Example 9] has an IC50 of 1600 nM.
For `O=C1CCC(C(=O)Nc2cc(-c3ccccc3)n(-c3ccccc3)n2)CN1` (racemic) [Example 10], the IC50 was 5500 nM.
Work on `CCCc1cccc(-c2cc(NC(=O)C3CNC(=O)C3)nn2-c2ccccc2)c1` (racemic) [Example 11] yielded an IC50 of 4.6 nM.
For `CCCn1nc(NC(=O)C2CNC(=O)C2)cc1-c1ccccc1` (racemic) [Example 12], the IC50 was 4400 nM.
`CCCCCCn1nc(NC(=O)C2CNC(=O)C2)cc1-c1ccccc1` (racemic) [Example 13] was tested, and the IC50 was 250 nM.
`CCCc1cccc(-c2cc(NC(=O)C3CNC(=O)C3)nn2C(C)C)c1` (racemic) [Example 17] was tested, and the IC50 was 66 nM.
With `CCCc1cccc(-c2cc(NC(=O)C3CNC(=O)C3)nn2CC(C)C)c1` (racemic) [Example 18] the IC50 was 31 nM.
`CCCc1cccc(-c2cc(NC(=O)C3(C)CNC(=O)C3)nn2-c2ccccc2)c1` (racemic) [Example 21] gave an IC50 of 680 nM.
`CCCc1cccc(-c2cc(NC(=O)C3CNC(=O)C3)nn2CC)c1` (racemic) [Example 24] was tested, and the IC50 was 130 nM.
Compound `CCCc1cccc(-c2cc(NC(=O)C3CNC(=O)C3)nn2C2CCCCC2)c1` (racemic) [Example 32] has an IC50 of 12 nM.
`CCCc1cccc(-c2cc(NC(=O)C3CNC(=O)C3)nn2C(C)(C)C)c1` (racemic) [Example 42] showed an IC50 of 190 nM.
For `CCCc1cccc(-c2cc(NC(=O)C3CNC(=O)C3CC)nn2-c2ccccc2)c1` (racemic) [Example 60], the IC50 was 17 nM.
`CCCc1cccc(-c2cc(NC(=O)C3CNC(=O)C3CCO)nn2-c2ccccc2)c1` (racemic) [Example 115] showed an IC50 of 41 nM.
`CCCc1cccc(-c2cc(NC(=O)C3CC(=O)NC3C)nn2-c2ccccc2)c1` (single isomer, unassigned) [Example 19] was tested, and the IC50 was 33 nM.
In the case of `CCCc1cccc(-c2cc(NC(=O)C3CC(=O)NC3C)nn2-c2ccccc2)c1` (single isomer, unassigned) [Example 20], the IC50 is reported as 150 nM.
Work on `CC1(C)CCCC(c2cc(NC(=O)[C@H]3CNC(=O)C3)nn2-c2ccccc2)C1` (single isomer, unassigned) [Example 88] yielded an IC50 of 17 nM.
In the case of `CC1(C)CCCC(c2cc(NC(=O)[C@H]3CNC(=O)C3)nn2-c2ccccc2)C1` (single isomer, unassigned) [Example 89], the IC50 is reported as 140 nM.
`O=C1CCC(C(=O)Nc2cc(-c3cccc(OC(F)(F)F)c3)n(-c3ccccc3)n2)CN1` (single isomer, unassigned) [Example 150] showed an IC50 of 7.7 nM.
In the case of `CCC(F)(F)c1cccc(-c2cc(NC(=O)C3CCC(=O)NC3)nn2-c2ccccc2)c1` (single isomer, unassigned) [Example 151], the IC50 is reported as 19 nM.
Work on `O=C1CCC(C(=O)Nc2cc(-c3cccc(OC(F)(F)F)c3)n(-c3ccc(F)cc3)n2)CN1` (single isomer, unassigned) [Example 165] yielded an IC50 of 22 nM.
`O=C1CCC(C(=O)Nc2cc(-c3cccc(OC(F)(F)F)c3)n(-c3ccccc3F)n2)CN1` (single isomer, unassigned) [Example 167] gave an IC50 of 15 nM.

Same assay, conditions: 14C-AMG uptake, CHO-K1 cells stably expressing human SGLT1
Compound `CCCc1cccc(-c2cc(NC(=O)C3CCS(=O)(=O)C3)nn2-c2ccccc2)c1` (racemic) [Example 320] has an IC50 of 3 nM.

Same assay, conditions: CHO-K1, at 0.1 uM
With `CC1C(=O)NC(O)C1C(=O)Nc1cc(-c2cccc(OC(F)(F)F)c2)n(-c2ccc(F)cc2)n1` (racemic) [Example 259] the inhibition at 0.1 µM was 20%.
`CCCc1cccc(-c2cc(NC(=O)C3CNC(=O)C(C)C3)nn2-c2ccccc2)c1` (racemic) [Example 292] gave an inhibition at 0.1 µM of 43%.

Same assay, conditions: CHO-K1, at 0.3 uM
Compound `CC1C(=O)NC(O)C1C(=O)Nc1cc(-c2cccc(OC(F)(F)F)c2)n(-c2ccccc2)n1` (racemic) [Example 254] has an inhibition at 0.3 µM of 49%.

Same assay, conditions: at 0.1 uM
With `CCCc1cccc(-c2cc(NC(=O)C3CNC(=O)C(C)C3)nn2-c2ccccc2)c1` (racemic) [Example 293] the “human SGLT1 % Inhibition” value was 27%.

— US8846746B2, “Pyrazole compound and pharmaceutical use thereof” (Japan Tobacco Inc., priority 2011, dated 2014)
